# In patent publication US20250352675A1, “CA-IX TARGETING FLUORESCENT PROBES” (BRACCO IMAGING S.P.A., priority 2022, published 2025):
# Columns and labels:
# [1] = target: T1, recombinant bovine CAII enzyme (bCAII) (Bos taurus, UniProt P00921); assay: Dansylamide (DNSA) displacement fluorescence assay on carbonic anhydrase catalytic site; type: binding; settings: 0.25 μM bCAII, 5 μM DNSA, 20 mM Tris pH 8; triplicate; read-out: CAII receptor affinity (KD)
# T1 construct: purchased Sigma-Aldrich; host or cells: E. coli
# Method: The binding affinity of the compounds of formula (I) to Carbonic Anhydrase (CA) catalytic site was determined to assess the targeting efficacy of the molecular vectors, even after labeling the targeting ligand with the fluorescent portion of the probe.
# Such enzyme in fact is highly available and has a catalytic site with high degree of homology in different carbonic anhydrase isoforms (Aggarwal M. et al., J Enzyme Inhib Med Chem 2013; 28(2): 267-277).
# The dissociation constant (Ko) of compounds of formula (I) for bCAII was estimated by performing a fluorescence-based assay, exploiting the drop of fluorescence deriving from the displacement of carbonic anhydrase-bound dansylamide (DNSA) in presence of competitors and was adapted for application in 96-well plates from Wang S C et al., Biochem Mol Biol Educ. 2006, 34(5): 364-368. […] In both cases DNSA is excited at about 320 nm. Thus, excitation of carbonic anhydrase aromatic residues (Trp) at 285 nm generates an emission at 340 nm, that is quenched in presence of bound DNSA. The quenching occurs by FRET (fluorescence resonance energy transfer) to bound DNSA, which is in turn excited, emitting at 460 nm.
# Molecules that bind to CA in the same binding site of DNSA, such as sulfonamides or derivatives, competitively displace DNSA from CA. The degree of displacement is function of the affinity of competitors and can be followed through the drop of fluorescence at 460 nm.
# In detail, 5-(Dimethylamino)-1-naphthalenesulfonamide (dansylamide, DNSA, Sigma-Aldrich 218898) was reconstituted in 20 mM Tris pH 8, aliquoted and stored at −20° C.; bCAII (recombinant, expressed in E. Coli, Sigma-Aldrich) was divided in aliquots and stored at −20° C.
# DNSA fluorescence emission at 462 nm from each well was recorded after excitation at 285 nm (Trp wavelength of excitation) and consequent selective excitation of DNSA bound to bCAII by FRET. Fractional saturation of bCAII was experimentally determined through normalization of fluorescence data between 1 (no compounds) and 0 (maximal DNSA displacement by presence of binding competitors), according to the equation below: […]
# where r is fractional saturation, FLobs is the recorded fluorescence intensity, FLmin is the fluorescence intensity recorded at maximal concentration of compounds, and FLmax is fluorescence recorded in absence of compounds.
# The KD of CA-binding compounds (=KDcomp) was then derived by mathematical fitting of experimental data according to the equation: […]
# Mathematical fitting was performed using Microsoft Excel Solver.
# All compounds were tested in triplicate.
# [2] = tested on: HT-29 cells; assay: Time-dependent cell uptake / internalization in HT-29 cells by flow cytometry; type: cell-based, human; settings: 1 μM; for Slope of cell-associated fluorescence increase / total cell-associated fluorescence over time: 37° C.; for Slope of cell-associated fluorescence increase: 1-6 hours; for total cell-associated fluorescence over time: 1 to 6 hours; for % internalization (mean ± std. dev.): after 2 hours at 37° C.
# Method: (§1) The HT-29 cells were used as in vitro model to assess the cell uptake of the CA-IX targeting compounds of the invention, more specifically whether cellular internalization of compounds occurred after targeting to cell-surface-expressed CA-IX. Cellular uptake was evaluated by flow cytometry. […] Treatment with unconjugated dyes were used to estimate non-specific CA-IX-independent cellular uptake. Cell incubation on ice was used to discriminate the cell-associated fluorescence deriving from internalized and cell-surface associated compounds (37° C.), from the one deriving from solely cell surface-bound compounds (on ice). Treatment of HT-29 cells, grown in 24-well plates, was performed by rinsing cells in DPBS and then by incubation with treatment solutions, for the indicated times and temperatures, in the dark. At the end of treatment, cells were rinsed 3 times with cold DPBS, and detached from the plate with StemPro® Accutase® Cell Dissociation Reagent, collected in 1.5 mL tubes after dilution in DPBS and centrifuged (5 minutes, 350 RCF, 4° C.). The supernatant was then discarded, and the cell pellet was resuspended in 300 μL of cold FACS buffer, or in a suitable volume in order to obtain no more than 1,000 recorded events per μL during FACS analysis. Samples were analyzed with the flow cytometer Accuri™ C6 (BD Biosciences) using the 640 nm excitation laser and the emission 780/60 nm filter. At least 15000 valid events were collected for each sample. At the end of analysis, each sample was plotted in histograms, being X the fluorescence intensity (FL4-A) in log scale and Y the counts. Usually, a gaussian distribution of the cell population was observed. The data retrieved were the mean fluorescence of each population, considered the fluorescence intensity value of the corresponding sample. Independent replicates were performed for each experimental condition. Normalized cell-associated fluorescence was calculated with the following formula: […]
# To evaluate the time dependent uptake, the experiments were conducted from 1 to 6 hours of cell treatment with a compound concentration of 1 μM, both on ice (internalization blocked) and at 37° C. (internalization-permissive temperature) in order to differentiate cell-associated fluorescence deriving from internalized compounds from that due to cell surface-associated one. The cell surface-associated fluorescence remained roughly constant over time while the binding of the corresponding unconjugated dyes was undetectable. […] The internalization potential was calculated as percentage of internalized compounds after 2 hours of cell treatment (arbitrarily chosen) at 37° C.
# [3] = tested on: HT-29 cells; assay: Receptor-mediated uptake: competition with 100x excess of acetazolamide in HT-29 cells; type: cell-based, human; settings: 1 μM, 2 hours at 37° C., relative to uptake without acetazolamide
# Method: as §1
# [4] = Ex vivo biodistribution, organ-to-muscle ratio; type: in vivo, mice; settings: 1 nmol/mouse, 24 hours after administration
# Method: The ex vivo biodistribution of the representative compounds 1, 2 and 3 and of the reference compound HF-1 (at 1 nmol/mouse) was evaluated in HT-29 excised tumors and tissues at the end of the in vivo OI sessions 24 hours post intravenous administration. At the end of the in vivo experiment, animals were euthanized by overdose of gaseous anesthesia followed by cervical dislocation. Tumor tissue, muscle, and other organs of interest were removed for ex vivo fluorescent signal measurements. The fluorescence signal intensity was measured by the IVIS Spectrum system. Regions of interest (ROIs) were drawn around each organ and tumor using the Living Image Software (PerkinElmer) and evaluating signal intensity in the tissues (expressed as Average Radiant Efficiency). The ratio between the fluorescence signal in the organs and tumor was then calculated to assess the contrast to hind limb muscle (representing the background).
# Moreover, FIG. 6 (b) and Table VIII show the accumulation and distribution of the fluorescent probes in the dissected organs, reporting the ex vivo values of organs-to-muscle ratio from samples collected at 24 hours after the administration of representative compounds 1, 2 and 3 and of the reference compound HF-1 (1 nmol/mouse).
# T1 sequence (P00921 whole entry): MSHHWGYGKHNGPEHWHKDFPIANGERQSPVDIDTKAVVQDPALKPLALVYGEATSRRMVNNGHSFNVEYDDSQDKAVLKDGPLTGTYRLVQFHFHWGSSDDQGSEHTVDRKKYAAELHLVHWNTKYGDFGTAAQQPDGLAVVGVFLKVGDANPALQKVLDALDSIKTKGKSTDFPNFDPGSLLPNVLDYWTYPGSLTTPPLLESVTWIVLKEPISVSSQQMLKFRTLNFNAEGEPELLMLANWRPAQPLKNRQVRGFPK
Kd [1] [nM],"Organ-to-muscle ratio, intestine [4]","Organ-to-muscle ratio, kidney [4]","Organ-to-muscle ratio, liver [4]","Organ-to-muscle ratio, skin [4]","Organ-to-muscle ratio, spleen [4]","Organ-to-muscle ratio, stomach [4]",SMILES,Slope of cell-associated fluorescence increase [2],total cell-associated fluorescence over time [2],% internalization (mean ± std. dev.) [2] [%],% uptake in presence of 100x excess of acetazolamide [3] [%]
6.2 ± 0.6,1.5 ± 0.3,8.3 ± 1.9,3.3 ± 1.1,1.1 ± 0.2,0.5 ± 0.1,11.3 ± 3.2,CC1(C)C(/C=C/C=C/C=C/C=C2/N(CCCCS(=O)(=O)O)c3ccc(C(=O)NC[C@H](O)[C@@H](O)[C@H](O)[C@H](O)CO)cc3C2(C)C)=[N+](CCCCS(=O)(=O)[O-])c2ccc(C(=O)NCCCCCCCC(=O)Nc3nnc(S(N)(=O)=O)s3)cc21 [Compound 1],1.0,increased over time,22.8 ± 8.2,16.4 ± 1.9
3.7 ± 0.3,1.2 ± 0.1,4.0 ± 1.7,2.7 ± 0.4,1.6 ± 0.4,1.0 ± 0.1,7.1 ± 1.2,CC1(C)C(/C=C/C=C/C=C/C=C2/N(CCCCS(=O)(=O)O)c3ccc(S(=O)(=O)O)cc3C2(C)C)=[N+](CCCCS(=O)(=O)[O-])c2ccc(C(=O)NCCCCCCCC(=O)Nc3nnc(S(N)(=O)=O)s3)cc21 [Compound 2],1.9,increased over time,40.8 ± 9.9,28.4 ± 2.2
3.8 ± 0.5,1.5 ± 0.2,4.7 ± 1.6,3.1 ± 0.6,1.0 ± 0.1,1.0 ± 0.1,3.5 ± 0.3,CC1(C)C(/C=C/C2=C(Oc3ccc(S(=O)(=O)O)cc3)C(=C/C=C3/N(CCCCS(=O)(=O)O)c4ccc(S(=O)(=O)O)cc4C3(C)C)/CCC2)=[N+](CCCCS(=O)(=O)[O-])c2ccc(C(=O)NCCCCCCCC(=O)Nc3nnc(S(N)(=O)=O)s3)cc21 [Compound 3],2.7,increased over time,49.2 ± 3.9,18.1 ± 11.5
